The text below walks through data of PubChem BioAssay (NCI).

Among the test systems are CAKI-1 renal; DU-145 prostate; HCC-2998 colon; HOP-62 NSCLC; MDA-MB-231 breast; MDA-MB-435; NCI/ADR-RES ovarian; OVCAR-4 ovarian; RXF 393 renal; SF-539 CNS; SW-620 colon; TK-10 renal.
Holding throughout (assay): DTP human tumour cell line panel, 48 h

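Protocol summary: plate cells (96-well), add compound at 5 concentrations, incubate 48 h, interpolate endpoints linearly. TGI: total growth inhibition.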

Take `CCCCCCCCCCCCP(=O)(O)OCC(N)C(=O)O` (centres undefined): the concentration for total growth inhibition (TGI) in the assay on CAKI-1 renal was greater than 100 µM; with DU-145 prostate it was greater than 100 µM; in the assay on HCC-2998 colon, greater than 100 µM; in the assay with HOP-62 NSCLC, 31.6 µM; in the assay with MDA-MB-231 breast it was 65.3 µM; in the assay on MDA-MB-435, 34.6 µM. Besides, the TGI was greater than 100 µM in the assay with NCI/ADR-RES ovarian; greater than 100 µM with OVCAR-4 ovarian; greater than 100 µM with RXF 393 renal; 47.4 µM in the assay on SF-539 CNS; greater than 100 µM in the assay with SW-620 colon; greater than 100 µM in the assay with TK-10 renal.
`Cc1nc2c(ncn2CCO)c(=O)[nH]1`: the TGI with CAKI-1 renal, in the assay with DU-145 prostate, in the assay with HCC-2998 colon, in the assay on HOP-62 NSCLC, in the assay on MDA-MB-231 breast and in the assay on MDA-MB-435 was greater than 100 µM throughout. Also, the TGI in the assay on NCI/ADR-RES ovarian, with OVCAR-4 ovarian, in the assay on RXF 393 renal, in the assay with SF-539 CNS, in the assay on SW-620 colon and with TK-10 renal was greater than 100 µM each time.
Consider `CC(NC(=O)C(N)CC(=O)O)NC(=O)N1CCCC1` (centres undefined), for which the total growth inhibition concentration (TGI) with CAKI-1 renal, in the assay with DU-145 prostate, with HCC-2998 colon, in the assay with HOP-62 NSCLC, with MDA-MB-231 breast and in the assay on MDA-MB-435 was greater than 100 µM each time. Also, the TGI in the assay on NCI/ADR-RES ovarian, in the assay with OVCAR-4 ovarian, in the assay on RXF 393 renal, in the assay on SF-539 CNS, in the assay with SW-620 colon and with TK-10 renal was greater than 100 µM throughout.
As to `O=C1NN(c2ccccc2)C(=O)C2C3c4ccccc4C(c4ccccc43)C12` (centres undefined), the TGI with CAKI-1 renal, with DU-145 prostate, in the assay with HCC-2998 colon, in the assay on HOP-62 NSCLC, with MDA-MB-231 breast and in the assay with MDA-MB-435 was greater than 100 µM each time. Besides, the TGI in the assay with NCI/ADR-RES ovarian, in the assay with OVCAR-4 ovarian, with RXF 393 renal, with SF-539 CNS, in the assay on SW-620 colon and in the assay with TK-10 renal was greater than 100 µM each time.
`CC1(C)O[C@@H]2[C@@H]3OC(=O)C[C@@H]3[C@@H](COCc3ccccc3)[C@@H]2O1`: the total growth inhibition concentration (TGI) in the assay on CAKI-1 renal, with DU-145 prostate, in the assay with HCC-2998 colon, in the assay on HOP-62 NSCLC, in the assay on MDA-MB-231 breast and in the assay on MDA-MB-435 was greater than 100 µM each time. Further, the TGI in the assay with NCI/ADR-RES ovarian, in the assay on OVCAR-4 ovarian, in the assay on RXF 393 renal, in the assay on SF-539 CNS, in the assay on SW-620 colon and in the assay on TK-10 renal was greater than 100 µM throughout.
Consider `CC1Cc2cc(O)ccc2C2[C@@H]1C1CC[C@H](O)[C@@]1(C)C[C@@H]2O[N+](=O)[O-]` (some centres undefined), for which the concentration for total growth inhibition (TGI) in the assay with CAKI-1 renal is 73.6 µM; in the assay with DU-145 prostate, 76.3 µM; with HCC-2998 colon, 22 µM; in the assay on HOP-62 NSCLC, 44.4 µM; in the assay on MDA-MB-231 breast, 85.8 µM; in the assay on MDA-MB-435, 16.9 µM. The TGI in the assay with NCI/ADR-RES ovarian was 38.9 µM; in the assay on OVCAR-4 ovarian, greater than 100 µM; in the assay on RXF 393 renal, 29.3 µM; in the assay with SF-539 CNS, 18.9 µM; in the assay on SW-620 colon, greater than 100 µM; in the assay with TK-10 renal, 63.8 µM.
Consider `CC1(C)C2CCC1(CC(=O)O)C(Cl)C2` (centres undefined), for which the TGI in the assay with CAKI-1 renal, with DU-145 prostate, in the assay with HCC-2998 colon, in the assay with HOP-62 NSCLC, with MDA-MB-231 breast and in the assay with MDA-MB-435 was greater than 100 µM each time. In addition, the TGI with NCI/ADR-RES ovarian, in the assay with OVCAR-4 ovarian, in the assay with RXF 393 renal, with SF-539 CNS, in the assay with SW-620 colon and in the assay with TK-10 renal was greater than 100 µM throughout.
Regarding `OCSc1nn(CO)c(=S)s1`, the TGI with CAKI-1 renal is greater than 100 µM; in the assay on DU-145 prostate, 57.6 µM; in the assay with HCC-2998 colon, 43.3 µM; in the assay on HOP-62 NSCLC, 45.2 µM; with MDA-MB-231 breast, 68.1 µM; in the assay with MDA-MB-435 it was 34.3 µM. For the same compound, the TGI in the assay on NCI/ADR-RES ovarian was 45.1 µM; in the assay with OVCAR-4 ovarian, 47 µM; with RXF 393 renal it was 34.3 µM; in the assay with SF-539 CNS, 56.8 µM; in the assay on SW-620 colon it was greater than 100 µM; with TK-10 renal it was greater than 100 µM.
In the case of `COC(=O)[C@@H]1C[C@]2(CC=C(C)C)c3ccccc3N(S(=O)(=O)c3ccccc3)[C@@H]2N1C(=O)OC`, the TGI is greater than 100 µM in the assay with CAKI-1 renal; greater than 100 µM in the assay on DU-145 prostate; 40.1 µM in the assay with HCC-2998 colon; greater than 100 µM in the assay on HOP-62 NSCLC; greater than 100 µM in the assay with MDA-MB-231 breast; 45 µM with MDA-MB-435. Further, the concentration for total growth inhibition (TGI) was 83.1 µM in the assay with NCI/ADR-RES ovarian; greater than 100 µM in the assay on OVCAR-4 ovarian; 43.9 µM with RXF 393 renal; 86.3 µM in the assay on SF-539 CNS; greater than 100 µM in the assay on SW-620 colon; greater than 100 µM in the assay with TK-10 renal.
For the compound `COC(=O)CCC(=O)c1ccc2c(c1)CC1(C2)Cc2ccc3c(c2C1)CCCC3=O` (centres undefined), the TGI with CAKI-1 renal was 78.1 µM; in the assay with DU-145 prostate, greater than 100 µM; in the assay on HCC-2998 colon, greater than 93.9 µM; in the assay with HOP-62 NSCLC, 97.4 µM; in the assay with MDA-MB-231 breast, greater than 100 µM; in the assay on MDA-MB-435 it was 19.9 µM. For the same compound, the TGI in the assay with NCI/ADR-RES ovarian was greater than 100 µM; in the assay on OVCAR-4 ovarian it was greater than 74 µM; in the assay with RXF 393 renal, 97.4 µM; in the assay with SF-539 CNS, 42.6 µM; with SW-620 colon, greater than 100 µM; in the assay with TK-10 renal it was greater than 100 µM.
As for `CC(C)=CCC[C@H](C)[C@H]1CC[C@@H](C)c2cc(O)c(C)cc21`, the concentration for total growth inhibition (TGI) is 31.9 µM in the assay on CAKI-1 renal; 37.9 µM in the assay with DU-145 prostate; 33.7 µM with HCC-2998 colon; 35.6 µM in the assay with HOP-62 NSCLC; 34 µM in the assay on MDA-MB-231 breast; 38.8 µM in the assay with MDA-MB-435. Besides, the TGI amounted to 36.7 µM in the assay with NCI/ADR-RES ovarian; 31.5 µM in the assay with OVCAR-4 ovarian; 42.2 µM in the assay on RXF 393 renal; 33.8 µM in the assay on SF-539 CNS; 56.6 µM in the assay with SW-620 colon; 32.8 µM in the assay with TK-10 renal.
Consider `O=C(/C(=C/c1cccs1)c1ccccc1)c1ccccc1`, for which the concentration for total growth inhibition (TGI) is greater than 100 µM in the assay with CAKI-1 renal; greater than 100 µM in the assay on DU-145 prostate; greater than 100 µM in the assay on HCC-2998 colon; 58.2 µM in the assay on HOP-62 NSCLC; greater than 100 µM in the assay on MDA-MB-231 breast; greater than 100 µM with MDA-MB-435. Also, the concentration for total growth inhibition (TGI) was greater than 100 µM in the assay on NCI/ADR-RES ovarian; greater than 100 µM in the assay on OVCAR-4 ovarian; 18.8 µM in the assay on RXF 393 renal; 87.6 µM in the assay on SF-539 CNS; greater than 100 µM with SW-620 colon; greater than 100 µM with TK-10 renal.

A word on the TGI: it is the concentration giving total growth inhibition.
